Results from ChEMBL document CHEMBL1141583, “Chemotherapeutic bone-targeted bisphosphonate prodrugs with hydrolytic mode of activation” (Bioorg Med Chem Lett, 2008).

How the values were obtained:
[1] = system: Jurkat; experiment: Growth inhibition of human Jurkat cells after 96 hrs; type: functional, cell-based
[2] = Chemical stability in phosphate buffer saline at pH 7.4; type: physicochemical

SMILES	IC50 [1] [nM]	half-life [2] [h]
CC[C@@]1(OC(=O)CCC(P(=O)(O)O)P(=O)(O)O)C(=O)OCc2c1cc1n(c2=O)Cc2cc3ccccc3nc2-1 [CAMDRONATE]	21	–
CC[C@@]1(O)C(=O)OCc2c1cc1n(c2=O)Cc2cc3ccccc3nc2-1 [CAMPTOTHECIN]	1.4	–
COc1cc(COC(=O)NC(Cc2c[nH]c3ccccc23)C(=O)O)cc(OC)c1OC(=O)OCCCCCCC(P(=O)(O)O)P(=O)(O)O (stereo not drawn) [TRYPDRONATE]	–	90
